The text below walks through data of PubChem BioAssay (NCI).

“And” between values parts separate entries of the source, which are not always exact repeats. Equal entries are not always repeated.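 In this assay, cells in 96-well plates receive the compound at five concentrations for 48 hours. Endpoints are linearly interpolated between the surrounding concentrations. Here, GI50 denotes the concentration required for 50% inhibition of growth. The concentration for full growth arrest is given as TGI.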 Bounds are passed on as bounds.

Test systems include 786-0 renal; A498 renal; DU-145 prostate; HCT-15 colon; MCF7 breast; MOLT-4 leukemia; NCI/ADR-RES ovarian; OVCAR-3 ovarian; SF-295 CNS; U251 CNS.
Common to all, as to test: NCI-60 cell line screen, 48 h

`CCCCNc1ccc(Nc2ccccc2)cc1`: the GI50 was 10.4 µM in the assay on 786-0 renal; 11.4 µM in the assay on A498 renal; 7.87 µM in the assay with DU-145 prostate; 21.3 µM in the assay on HCT-15 colon; 3.74 µM with MCF7 breast; 3.23 µM in the assay with MOLT-4 leukemia. The GI50 with NCI/ADR-RES ovarian is 21.5 µM; in the assay on OVCAR-3 ovarian, 3.79 µM; with SF-295 CNS, 4.63 µM; in the assay on U251 CNS, 3.89 µM. The TGI with 786-0 renal was 74.6 µM; in the assay with A498 renal, over 100 µM; in the assay with DU-145 prostate it was over 100 µM; with HCT-15 colon, over 100 µM; in the assay with MCF7 breast it was 28 µM; in the assay on MOLT-4 leukemia it was 25.9 µM. Also, the TGI is over 100 µM in the assay on NCI/ADR-RES ovarian, over 100 µM in the assay on OVCAR-3 ovarian, 64.4 µM in the assay on SF-295 CNS and over 100 µM in the assay on U251 CNS.
Regarding `COc1c(N2CCN(CN3C(=O)C(=O)c4cc(Cl)ccc43)C(C)C2)c(F)cc2c(=O)c(C(=O)O)cn(C3CC3)c12` (stereo unspecified), the GI50 in the assay with 786-0 renal was over 100 µM; with A498 renal, 11.9 µM; in the assay on DU-145 prostate, 70.6 µM; with HCT-15 colon, 31.7 µM; in the assay with MCF7 breast, 26.6 µM; in the assay on MOLT-4 leukemia it was 4.98 µM. For the same compound, the GI50 in the assay with NCI/ADR-RES ovarian was 76.4 µM; in the assay with OVCAR-3 ovarian it was 30 µM; in the assay on SF-295 CNS it was 91.7 µM; with U251 CNS, 41.3 µM. Besides, the TGI with 786-0 renal was over 100 µM; in the assay on A498 renal it was 80.9 µM; in the assay with DU-145 prostate it was over 100 µM; with HCT-15 colon, over 100 µM; in the assay on MCF7 breast it was over 100 µM; in the assay with MOLT-4 leukemia it was over 100 µM. Also, the TGI in the assay on NCI/ADR-RES ovarian, in the assay with OVCAR-3 ovarian, in the assay with SF-295 CNS and in the assay with U251 CNS was over 100 µM each time.
On to `COC(=O)[C@H](Cc1cn(C)cn1)NC(=O)[C@H](C)NC(=O)Nc1cc(C(F)(F)F)cc(C(F)(F)F)c1`, for which the GI50 in the assay on 786-0 renal, in the assay on A498 renal, with DU-145 prostate, in the assay with HCT-15 colon, with MCF7 breast and in the assay with MOLT-4 leukemia was over 10 µM each time. In addition, the GI50 in the assay on NCI/ADR-RES ovarian, with OVCAR-3 ovarian, in the assay with SF-295 CNS and in the assay on U251 CNS was over 10 µM in each case. For the same compound, the TGI with 786-0 renal, in the assay with A498 renal, in the assay with DU-145 prostate, in the assay on HCT-15 colon, in the assay on MCF7 breast and in the assay with MOLT-4 leukemia was over 10 µM in each case. Moreover, the TGI in the assay with NCI/ADR-RES ovarian, in the assay on OVCAR-3 ovarian, in the assay with SF-295 CNS and in the assay with U251 CNS was over 10 µM each time.
On to `C=Cn1c([N+](=O)[O-])cnc1/C=C/c1ccc(C(=O)OCCN2CCOCC2)cc1`, for which the TGI in the assay on 786-0 renal, with A498 renal, in the assay on DU-145 prostate, with HCT-15 colon, in the assay on MCF7 breast and with MOLT-4 leukemia was over 100 µM in each case. Further, the TGI with NCI/ADR-RES ovarian, in the assay with OVCAR-3 ovarian, in the assay with SF-295 CNS and with U251 CNS was over 100 µM in each case.
For `CCC(C)C(=O)OCC(=O)c1ccc(-c2ccccc2)cc1` (stereo unspecified), the TGI was over 100 µM in the assay with 786-0 renal; over 100 µM in the assay with A498 renal; over 100 µM in the assay on DU-145 prostate; 43.3 µM with HCT-15 colon; over 100 µM in the assay on MCF7 breast; over 100 µM in the assay on MOLT-4 leukemia. Moreover, the TGI in the assay on NCI/ADR-RES ovarian, in the assay with OVCAR-3 ovarian, in the assay on SF-295 CNS and in the assay on U251 CNS was over 100 µM each time.
With `CCc1nc(N)nc(N)c1-c1ccc(Cl)c(N=[N+]=[N-])c1`, the TGI is > 77.8 µM and 45.2 µM in the assay with 786-0 renal; 60.7 µM and 72.6 µM with A498 renal; over 100 µM with DU-145 prostate; over 100 µM with HCT-15 colon; > 76.1 µM and 56.7 µM in the assay on MCF7 breast; 26.8 µM and 71.1 µM with MOLT-4 leukemia. The TGI is 63.9 µM and 99.4 µM with NCI/ADR-RES ovarian; 64.6 µM and 80 µM in the assay with OVCAR-3 ovarian; > 100 µM and 82 µM in the assay on SF-295 CNS; over 100 µM in the assay on U251 CNS. Besides, the GI50 in the assay with HCT-15 colon was 0.791 µM and 2.06 µM; in the assay with MOLT-4 leukemia, 2.82 µM and 6.62 µM.
Consider `CN(CCC(=O)/C(=C\c1ccccc1)c1ccc(Cl)cc1)Cc1ccccc1`, for which the GI50 was 2.03 µM with 786-0 renal; 3.45 µM in the assay with A498 renal; 2.35 µM in the assay with DU-145 prostate; 2.42 µM in the assay on HCT-15 colon; 2.06 µM in the assay with MCF7 breast; 1.49 µM in the assay on MOLT-4 leukemia. Besides, the GI50 was 3.68 µM with NCI/ADR-RES ovarian, 2.03 µM in the assay on OVCAR-3 ovarian, 2.76 µM in the assay with SF-295 CNS and 1.9 µM with U251 CNS. For the same compound, the TGI with 786-0 renal turned out to be 4.1 µM; in the assay with A498 renal, 12.6 µM; with DU-145 prostate it was 6.78 µM; with HCT-15 colon, 7.05 µM; with MCF7 breast, 16.5 µM; in the assay on MOLT-4 leukemia, 6.88 µM. In addition, the TGI with NCI/ADR-RES ovarian is over 100 µM; in the assay on OVCAR-3 ovarian, 5.04 µM; in the assay with SF-295 CNS it was 7.5 µM; with U251 CNS it was 4.35 µM.
For the compound `Cc1cc(Cl)ccc1C(=O)c1ccc2ccccc2c1C(=O)O`, the TGI in the assay with 786-0 renal, in the assay on A498 renal, in the assay on DU-145 prostate, in the assay with HCT-15 colon, in the assay on MCF7 breast and in the assay on MOLT-4 leukemia was over 100 µM throughout. The TGI with NCI/ADR-RES ovarian, in the assay on OVCAR-3 ovarian, in the assay on SF-295 CNS and with U251 CNS was over 100 µM each time.
On to `COc1cc2c(c(OC)c1OC)-c1ccc(N=NC(N)=S)c(=O)cc1[C@@H](NC(C)=O)CC2`, for which the GI50 was 1.69 µM in the assay with 786-0 renal; 0.477 µM with A498 renal; 0.655 µM with DU-145 prostate; 6 µM with HCT-15 colon; 0.364 µM in the assay on MCF7 breast; 1.3 µM in the assay on MOLT-4 leukemia. Moreover, the GI50 with NCI/ADR-RES ovarian is 17.5 µM; with OVCAR-3 ovarian, 0.263 µM; in the assay on SF-295 CNS, 1.45 µM; in the assay with U251 CNS, 0.426 µM. Also, the TGI in the assay with A498 renal was 3.15 µM; in the assay with DU-145 prostate, 4.66 µM; with HCT-15 colon, over 100 µM; in the assay on MCF7 breast, over 100 µM; in the assay with MOLT-4 leukemia it was over 100 µM; with NCI/ADR-RES ovarian, 49.1 µM. The TGI in the assay with OVCAR-3 ovarian is 0.642 µM; with SF-295 CNS, over 100 µM; in the assay with U251 CNS, over 100 µM.
In the case of `O=C(O)c1c(Br)c(Br)c(Br)c(Br)c1C1c2ccc(O)cc2Oc2cc(O)ccc21`, the TGI in the assay with 786-0 renal, in the assay on A498 renal, with DU-145 prostate, in the assay with HCT-15 colon, with MCF7 breast and in the assay with MOLT-4 leukemia was over 100 µM each time. Moreover, the TGI in the assay on NCI/ADR-RES ovarian, in the assay with OVCAR-3 ovarian, in the assay with SF-295 CNS and with U251 CNS was over 100 µM each time.
As for `O=C(CCCN1CCC(C(O)c2ccc(F)cc2)CC1)c1ccc(F)cc1` (stereo unspecified), the TGI in the assay on 786-0 renal turned out to be 96.6 µM; in the assay on A498 renal, 94.4 µM; with DU-145 prostate, 118 µM; in the assay with HCT-15 colon it was 123 µM; with MCF7 breast, 122 µM; in the assay with MOLT-4 leukemia it was 142 µM. The TGI with NCI/ADR-RES ovarian was 149 µM; in the assay on OVCAR-3 ovarian, 116 µM; with SF-295 CNS it was 118 µM; in the assay on U251 CNS, 106 µM.
With `O=C1CC/C(=C/COc2cc(=O)oc3ccccc23)O1`, the GI50 in the assay with 786-0 renal is 2.54 µM; in the assay with A498 renal, 12.6 µM; with DU-145 prostate, 4.32 µM; in the assay on HCT-15 colon, 5.28 µM; with MCF7 breast it was 3.74 µM; in the assay with MOLT-4 leukemia it was 3.78 µM. Moreover, the GI50 with NCI/ADR-RES ovarian was 11.5 µM; in the assay on OVCAR-3 ovarian, 5.41 µM; with SF-295 CNS, 14.8 µM; with U251 CNS, 11 µM. Further, the TGI was 15.9 µM in the assay with 786-0 renal; 35.4 µM with A498 renal; 17.6 µM in the assay on DU-145 prostate; 18.4 µM with HCT-15 colon; 20.2 µM with MCF7 breast; over 100 µM with MOLT-4 leukemia. For the same compound, the TGI was 27.5 µM in the assay on NCI/ADR-RES ovarian, 21.1 µM with OVCAR-3 ovarian, 40.6 µM in the assay with SF-295 CNS and 23.4 µM with U251 CNS.
As for `Cn1cc(C2=C(Nc3ccccc3)C(=O)NC2=O)c2ccccc21`, the GI50 is over 25 µM in the assay on 786-0 renal; over 25 µM with A498 renal; over 25 µM with DU-145 prostate; 24.8 µM in the assay with HCT-15 colon; over 25 µM in the assay on MCF7 breast; over 23.1 µM in the assay on MOLT-4 leukemia. For the same compound, the GI50 in the assay on NCI/ADR-RES ovarian, in the assay with OVCAR-3 ovarian, in the assay with SF-295 CNS and in the assay with U251 CNS was over 25 µM throughout. Moreover, the TGI in the assay on 786-0 renal, with A498 renal, with DU-145 prostate, in the assay with HCT-15 colon, in the assay with MCF7 breast and with MOLT-4 leukemia was over 25 µM throughout. Moreover, the TGI in the assay with NCI/ADR-RES ovarian, in the assay with OVCAR-3 ovarian, in the assay with SF-295 CNS and in the assay on U251 CNS was over 25 µM in each case.
For the compound `CC1(C)O[C@@H]2C[C@H]3[C@@H]4C[C@H](F)C5=CC(=O)C=C[C@]5(C)[C@@]4(F)[C@@H](O)C[C@]3(C)[C@]2(C(=O)CO)O1`, the TGI with 786-0 renal, with A498 renal, in the assay on DU-145 prostate, in the assay on HCT-15 colon, with MCF7 breast and in the assay with MOLT-4 leukemia was over 100 µM each time. Moreover, the TGI in the assay with NCI/ADR-RES ovarian, in the assay with OVCAR-3 ovarian, in the assay on SF-295 CNS and in the assay on U251 CNS was over 100 µM in each case.
